Consider one compound from paper PMC9413440, “An Iterative Approach Guides Discovery of the FabI Inhibitor Fabimycin, a Late-Stage Antibiotic Candidate with In Vivo Efficacy against Drug-Resistant Gram-Negative Infections” (ACS Central Science, 2022).

Data set [1] is classed as in vitro ADME. On the procedure: Selection of resistant mutants
Resistant mutants were generated using the large inoculum method. Briefly, S. aureus 29213, E. coli MG1655, and A. baumannii 19606 (~1 x 1010 CFUs) was plated on 100-mm plates (E. coli and A. baumannii) or 150-mm plates (S. aureus) of MH agar containing either 128, 64, or 32 µg/mL fabimycin (for gram-negatives) or 0.125, 0.062, and 0.031 µg/mL fabimycin (for S. aureus). Plates were incubated at 37 °C for 48 h and counted for the presence of colony forming units.
Glycerol stocks of selected colonies were made, and resistant colonies confirmed by growing on agar plates containing the same concentration of fabimycin that they were generated at.
Sequencing of bacterial fabI
The FabI gene was amplified by PCR. Fabimycin-resistant colonies were picked and diluted in 100 µL sterile, nuclease-free H2O. […] A 10 µL portion of PCR reaction mixture was analyzed by agarose gel electrophoresis to confirm the single 1.4-kilobase pair product. […]
Candidate drugs were incubated with plasma and parent drug levels were monitored at various time points (generally t=0, 10, 20, 30, and 60 minutes) to determine the drug’s half-life in the presence of the chosen system. […] The supernatant was collected after centrifugation, and the sample analyzed by LC-MS where the percentage of compound remaining is plotted vs time to determine the drug’s half-life. […]

The subject of the next data set is E. coli MG1655. Nature of the data set: Time-kill kinetics. In kind it is cell-based, Escherichia coli. As to conditions: E. coli MG1655, over 8 h. Here is the method: An overnight culture of E. coli MG1655 was diluted in 5 mL of MH broth to ~5.0 * 10^5 CFU/mL and incubated at 37 °C […]
while shaking for 1 hour. […]
the course of 8 hours. At each time point 100 µL of culture was collected and serially diluted in sterile PBS before plating on drug-free agar plates. Colonies were counted after incubation at 37 °C overnight and CFU/mL calculated. […]
All cells were cultured […]
at 37 °C under a 5% CO2 environment. Cell lines were authenticated by a commercial vendor and inspected visually in house. Cell lines were not tested for Mycoplasma contamination. The media was prepared by the University of Illinois School of Chemical Sciences Cell Media Facility.
H. sapiens HFF-1, A549, and HepG2 cells were seeded (3,000-6,000 cells/well) in a 96-well plate (Greiner Bio-One;

A further data set can be described thus: in vivo. From the text: Mouse maximum tolerated dose (MTD) of fabimycin
The protocol to assess fabimycin’s murine MTD when formulated in 20% sulfobutyl ether(7) β-cyclodextrin (SBE-β-CD) in H2O was approved by the Institutional Animal Care and Use Committee (IACUC) at the University of Illinois at Urbana-Champaign (protocol number: 19181). […]
from Charles River were used. Mice were randomly chosen and divided into subsequent groups. No additional randomization was used to allocate the experimental groups; blinding was not performed for subsequent quantitation.
The MTD of a single dosage of a given compound was determined before evaluating the MTD of multiple dosages. […]
weeks (single dose). The single-dose MTDs were determined first. For multiple doses, the compound was given by daily […]
highest dosage with acceptable toxicity (<20% weight loss). MTD values shown for Debio-1452-NH3 are as previously reported.3 MTD values for fabimycin when formulated in 17% Cremophor EL/3% SBE-β-CD were drawn from infection models conducted with neutropenic A. baumannii-infected mice (see below). […]
River Licensee) weighing 18 ± 2 grams were used.10 All animals were specific pathogen free. Mice were rendered neutropenic via cyclophosphamide (CP) administration by two intraperitoneal (IP) injections following a standard method for mouse thigh infection models.11 The first CP dose, 150 mg/kg, was administered at four days before infection (Day –4); and the second, 100 mg/kg, at 24 h before infection (Day –1), prior to infection on Day 0.

Take `Cc1c(CN(C)C(=O)/C=C/c2cnc3c(c2)CC[C@H](N)C(=O)N3)oc2ccccc12` [fabimycin]: the plasma protein binding result in data set [1] is on record as “lower plasma protein binding relative to Debio-1452”. Besides, in the data set on E. coli MG1655, the “rate of killing, time-kill growth curve” value is “not profoundly bactericidal”. In “in vivo” (BALB/c, mouse, iv), the MTD turned out to be 100 mg/kg, the MTD at 1 day was found to be 75 mg/kg and the MTD at 3 d was 75 mg/kg. In addition, in the data set “in vivo” (female, C57BL/6, mouse, ip), the MTD at 2 weeks was more than 200 mg/kg, the MTD at 1 day was more than 200 mg/kg and the MTD at 5 d is more than 100 mg/kg.
